Results as given in patent US20250381220A1, “MAGNESIUM-L-THREONATE AND NEUROTRANSMITTER COMPOSITIONS AND RELATED METHODS” (Neuro Supplements, LLC, priority 2020, published 2025).

Test system: Male Wistar Rats
Assay: Morris Water Maze (MWM) probe test
Type: in vivo, rat
Conditions: 21 days through drinking water, probe test day 21, FIG. 4, MgT 435, PS 60 mg/kg bw/day

## phosphatidylserine [PS]
  time spent in target quadrant: significant increase
